Assay results as given in the kinase profiling compilation of Christmann-Franck et al. (2016).

Assays:
Assay in all cases: radiometric filter-binding kinase assay, Kinase HotSpot
Conditions in all cases: compound 0.5 µM; ATP 10 µM
[1] = molecular target: ACVR1 (human) (UniProt Q04771)
[2] = molecular target: AKT3 (human) (UniProt Q9Y243)
[3] = molecular target: BMX (human) (UniProt P51813)
[4] = molecular target: CAMK4 (human) (UniProt Q16566)
[5] = molecular target: CDK5 CDK5R1 p25 (human) (UniProt Q00535+Q15078)
[6] = molecular target: CLK4 (human) (UniProt Q9HAZ1)
[7] = molecular target: CSF1R (human) (UniProt P07333)
[8] = molecular target: CSNK1E (human) (UniProt P49674)
[9] = molecular target: ERBB2 (human) (UniProt P04626)
[10] = molecular target: ERBB4 (human) (UniProt Q15303)
Chain of ERBB4 (human) (Q15303 whole entry, looked up): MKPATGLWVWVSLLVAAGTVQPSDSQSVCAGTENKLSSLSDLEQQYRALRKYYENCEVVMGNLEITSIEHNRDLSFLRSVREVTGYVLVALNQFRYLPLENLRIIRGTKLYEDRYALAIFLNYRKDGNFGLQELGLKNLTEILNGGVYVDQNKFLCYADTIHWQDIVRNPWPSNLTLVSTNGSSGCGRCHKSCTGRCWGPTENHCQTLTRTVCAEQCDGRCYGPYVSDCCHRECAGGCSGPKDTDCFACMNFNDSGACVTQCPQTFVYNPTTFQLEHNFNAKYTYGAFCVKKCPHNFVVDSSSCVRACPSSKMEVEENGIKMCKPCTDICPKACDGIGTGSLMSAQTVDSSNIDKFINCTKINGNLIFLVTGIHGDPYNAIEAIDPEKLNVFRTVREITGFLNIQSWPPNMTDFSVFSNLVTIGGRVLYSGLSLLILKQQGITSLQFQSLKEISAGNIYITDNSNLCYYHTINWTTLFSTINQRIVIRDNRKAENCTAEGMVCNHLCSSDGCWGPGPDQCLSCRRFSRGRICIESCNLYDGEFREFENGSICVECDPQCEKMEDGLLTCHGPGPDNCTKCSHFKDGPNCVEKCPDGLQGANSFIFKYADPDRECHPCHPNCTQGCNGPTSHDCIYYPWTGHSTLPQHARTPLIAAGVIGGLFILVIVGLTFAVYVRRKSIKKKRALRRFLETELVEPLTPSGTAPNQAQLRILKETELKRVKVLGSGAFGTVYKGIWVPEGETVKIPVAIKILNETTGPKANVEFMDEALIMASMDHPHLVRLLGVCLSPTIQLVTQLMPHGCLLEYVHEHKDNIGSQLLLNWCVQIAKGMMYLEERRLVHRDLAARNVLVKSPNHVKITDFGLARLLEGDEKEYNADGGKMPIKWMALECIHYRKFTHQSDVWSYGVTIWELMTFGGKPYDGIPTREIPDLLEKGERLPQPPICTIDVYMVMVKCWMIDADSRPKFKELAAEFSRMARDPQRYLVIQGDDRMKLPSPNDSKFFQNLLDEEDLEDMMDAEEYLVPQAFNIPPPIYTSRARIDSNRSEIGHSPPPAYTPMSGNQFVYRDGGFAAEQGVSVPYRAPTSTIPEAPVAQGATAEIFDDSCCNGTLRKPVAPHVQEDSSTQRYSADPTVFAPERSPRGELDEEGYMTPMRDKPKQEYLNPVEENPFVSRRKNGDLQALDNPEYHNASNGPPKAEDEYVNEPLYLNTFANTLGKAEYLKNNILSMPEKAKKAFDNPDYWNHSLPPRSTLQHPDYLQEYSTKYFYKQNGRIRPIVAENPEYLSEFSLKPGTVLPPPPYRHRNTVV

[11] = molecular target: FGFR2 (human) (UniProt P21802)
[12] = molecular target: FGFR3 (human) (UniProt P22607)
[13] = molecular target: FGFR4 (human) (UniProt P22455)
[14] = molecular target: JAK3 JH1 JH2 (human) (UniProt P52333)
[15] = molecular target: LTK (human) (UniProt P29376)
[16] = molecular target: MAP3K10 (human) (UniProt Q02779)
[17] = molecular target: MAP4K4 (human) (UniProt O95819)
[18] = molecular target: MAPK12 (human) (UniProt P53778)
[19] = molecular target: MAPK14 (human) (UniProt Q16539)
[20] = molecular target: MAPK3 (human) (UniProt P27361)
[21] = molecular target: MAPKAPK5 (human) (UniProt Q8IW41)
[22] = molecular target: MET (human) (UniProt P08581)
[23] = molecular target: MINK1 (human) (UniProt Q8N4C8)
Chain of MINK1 (human) (Q8N4C8 whole entry, looked up): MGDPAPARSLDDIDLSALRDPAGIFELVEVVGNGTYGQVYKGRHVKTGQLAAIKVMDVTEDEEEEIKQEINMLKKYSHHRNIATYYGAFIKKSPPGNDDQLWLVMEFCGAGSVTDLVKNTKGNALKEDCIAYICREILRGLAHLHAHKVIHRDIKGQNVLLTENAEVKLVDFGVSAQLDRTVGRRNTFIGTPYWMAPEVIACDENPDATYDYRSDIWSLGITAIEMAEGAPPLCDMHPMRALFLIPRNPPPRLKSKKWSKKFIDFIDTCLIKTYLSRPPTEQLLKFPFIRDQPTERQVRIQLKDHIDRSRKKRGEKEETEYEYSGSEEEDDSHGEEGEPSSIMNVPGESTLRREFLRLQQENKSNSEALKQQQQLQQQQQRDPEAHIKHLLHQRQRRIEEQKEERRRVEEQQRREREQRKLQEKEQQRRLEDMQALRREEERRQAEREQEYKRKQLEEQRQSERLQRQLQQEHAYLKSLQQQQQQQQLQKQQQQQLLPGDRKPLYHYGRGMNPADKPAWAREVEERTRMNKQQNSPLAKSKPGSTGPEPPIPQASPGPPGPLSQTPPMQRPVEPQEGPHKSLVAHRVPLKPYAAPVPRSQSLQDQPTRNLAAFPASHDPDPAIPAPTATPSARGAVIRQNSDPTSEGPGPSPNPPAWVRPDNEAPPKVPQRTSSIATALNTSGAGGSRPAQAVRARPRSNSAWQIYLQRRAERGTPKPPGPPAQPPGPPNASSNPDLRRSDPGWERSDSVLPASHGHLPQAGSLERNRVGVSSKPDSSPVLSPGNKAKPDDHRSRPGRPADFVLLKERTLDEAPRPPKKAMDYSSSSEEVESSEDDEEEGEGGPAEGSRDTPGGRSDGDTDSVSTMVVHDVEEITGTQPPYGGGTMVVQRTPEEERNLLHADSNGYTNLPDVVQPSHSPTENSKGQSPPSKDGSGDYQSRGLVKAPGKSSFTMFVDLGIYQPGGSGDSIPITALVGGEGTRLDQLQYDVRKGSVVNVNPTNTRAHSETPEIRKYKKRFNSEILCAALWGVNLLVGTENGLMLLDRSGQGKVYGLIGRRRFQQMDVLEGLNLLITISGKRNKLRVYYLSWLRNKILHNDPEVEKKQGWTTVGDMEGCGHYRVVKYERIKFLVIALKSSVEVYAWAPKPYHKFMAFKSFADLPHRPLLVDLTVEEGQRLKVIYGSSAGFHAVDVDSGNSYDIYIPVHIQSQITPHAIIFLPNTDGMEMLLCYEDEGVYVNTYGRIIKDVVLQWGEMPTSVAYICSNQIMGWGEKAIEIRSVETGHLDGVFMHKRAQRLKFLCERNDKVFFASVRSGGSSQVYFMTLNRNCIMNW

[24] = molecular target: MKNK2 (human) (UniProt Q9HBH9)
[25] = molecular target: NEK2 (human) (UniProt P51955)
[26] = molecular target: PASK (human) (UniProt Q96RG2)
[27] = molecular target: PLK1 (human) (UniProt P53350)
[28] = molecular target: PRKCD (human) (UniProt Q05655)
[29] = molecular target: PTK2 (human) (UniProt Q05397)
[30] = molecular target: PTK6 (human) (UniProt Q13882)
[31] = molecular target: RAF1 (human) (UniProt P04049)
[32] = molecular target: ROCK1 (human) (UniProt Q13464)
Chain of ROCK1 (human) (Q13464 whole entry, looked up): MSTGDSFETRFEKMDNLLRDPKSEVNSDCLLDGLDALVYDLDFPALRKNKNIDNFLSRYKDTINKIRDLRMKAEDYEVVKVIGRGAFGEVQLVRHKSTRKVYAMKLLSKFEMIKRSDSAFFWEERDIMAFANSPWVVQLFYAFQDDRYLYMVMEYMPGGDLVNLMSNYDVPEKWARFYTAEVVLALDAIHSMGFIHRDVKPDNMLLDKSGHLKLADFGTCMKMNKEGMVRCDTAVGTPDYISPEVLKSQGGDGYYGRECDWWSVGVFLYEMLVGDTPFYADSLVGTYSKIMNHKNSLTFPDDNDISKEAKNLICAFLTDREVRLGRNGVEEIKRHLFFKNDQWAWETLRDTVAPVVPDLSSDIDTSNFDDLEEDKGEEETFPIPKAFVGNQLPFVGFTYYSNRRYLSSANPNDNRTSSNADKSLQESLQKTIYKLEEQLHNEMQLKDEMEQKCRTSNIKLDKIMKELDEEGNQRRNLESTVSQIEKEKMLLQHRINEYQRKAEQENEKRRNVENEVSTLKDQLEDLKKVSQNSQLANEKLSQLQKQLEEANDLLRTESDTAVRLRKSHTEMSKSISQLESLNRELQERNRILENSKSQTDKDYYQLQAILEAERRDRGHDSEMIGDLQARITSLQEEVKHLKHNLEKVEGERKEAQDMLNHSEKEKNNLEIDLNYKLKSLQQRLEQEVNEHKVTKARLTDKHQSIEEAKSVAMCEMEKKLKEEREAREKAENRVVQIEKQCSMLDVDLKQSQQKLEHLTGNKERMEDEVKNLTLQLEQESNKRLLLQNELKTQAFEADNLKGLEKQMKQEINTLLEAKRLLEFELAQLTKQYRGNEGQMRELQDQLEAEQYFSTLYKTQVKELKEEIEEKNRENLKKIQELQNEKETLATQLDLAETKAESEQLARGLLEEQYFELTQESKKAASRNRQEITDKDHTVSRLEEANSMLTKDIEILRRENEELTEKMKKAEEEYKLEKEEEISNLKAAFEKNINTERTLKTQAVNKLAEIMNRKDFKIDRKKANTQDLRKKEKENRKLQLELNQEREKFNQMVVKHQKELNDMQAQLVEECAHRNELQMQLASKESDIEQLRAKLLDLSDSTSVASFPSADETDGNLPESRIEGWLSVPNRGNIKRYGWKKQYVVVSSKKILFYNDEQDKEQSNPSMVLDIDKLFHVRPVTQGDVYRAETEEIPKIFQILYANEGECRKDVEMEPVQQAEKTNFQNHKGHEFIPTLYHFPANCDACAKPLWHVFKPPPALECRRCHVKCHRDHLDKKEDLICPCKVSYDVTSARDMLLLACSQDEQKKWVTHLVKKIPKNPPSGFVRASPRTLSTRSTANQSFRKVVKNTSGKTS

[33] = molecular target: RPS6KA2 KD1 KD2 (human) (UniProt Q15349)
[34] = molecular target: RPS6KB2 (human) (UniProt Q9UBS0)
[35] = molecular target: SGK2 (human) (UniProt Q9HBY8)
[36] = molecular target: SRMS (human) (UniProt Q9H3Y6)
Chain of SRMS (human) (Q9H3Y6 whole entry, looked up): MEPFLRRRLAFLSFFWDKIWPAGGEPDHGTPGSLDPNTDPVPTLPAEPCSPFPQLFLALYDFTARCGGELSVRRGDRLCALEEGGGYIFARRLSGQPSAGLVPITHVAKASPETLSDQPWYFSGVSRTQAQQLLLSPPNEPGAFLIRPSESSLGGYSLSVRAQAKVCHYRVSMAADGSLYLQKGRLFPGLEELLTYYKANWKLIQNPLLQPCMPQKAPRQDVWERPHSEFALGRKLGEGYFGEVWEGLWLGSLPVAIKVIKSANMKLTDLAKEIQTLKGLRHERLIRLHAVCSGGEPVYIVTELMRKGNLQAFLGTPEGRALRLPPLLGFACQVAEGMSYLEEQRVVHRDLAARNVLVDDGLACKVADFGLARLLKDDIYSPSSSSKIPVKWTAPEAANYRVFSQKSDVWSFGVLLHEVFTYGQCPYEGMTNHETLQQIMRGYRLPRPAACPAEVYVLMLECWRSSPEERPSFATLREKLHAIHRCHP

[37] = molecular target: STK10 (human) (UniProt O94804)
[38] = molecular target: STK11 (human) (UniProt Q15831)
Chain of STK11 (human) (Q15831 whole entry, looked up): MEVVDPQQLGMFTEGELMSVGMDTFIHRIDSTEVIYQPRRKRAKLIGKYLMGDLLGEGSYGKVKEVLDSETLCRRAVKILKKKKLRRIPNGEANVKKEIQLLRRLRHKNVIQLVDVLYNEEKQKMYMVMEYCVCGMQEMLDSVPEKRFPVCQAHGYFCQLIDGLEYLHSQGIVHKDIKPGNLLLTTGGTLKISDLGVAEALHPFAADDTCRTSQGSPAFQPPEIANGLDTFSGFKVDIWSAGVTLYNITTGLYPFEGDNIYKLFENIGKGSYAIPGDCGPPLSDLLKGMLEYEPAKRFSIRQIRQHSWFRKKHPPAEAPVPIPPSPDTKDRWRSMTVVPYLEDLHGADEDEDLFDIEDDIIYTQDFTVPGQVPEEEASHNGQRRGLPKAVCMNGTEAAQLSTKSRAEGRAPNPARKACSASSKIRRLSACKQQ

[39] = molecular target: STK16 (human) (UniProt O75716)
[40] = molecular target: TAOK1 (human) (UniProt Q7L7X3)
[41] = molecular target: TNK2 (human) (UniProt Q07912)
[42] = molecular target: TYRO3 (human) (UniProt Q06418)

Work on `O=c1c2ccccc2[nH]c(=S)n1CCN1CCC(=C(c2ccc(F)cc2)c2ccc(F)cc2)CC1` yielded a residual activity [1] of 107%, a residual activity [2] of 99.4% and a residual activity [3] of 85.5%. The residual activity [4] was 94.7%, the residual activity [5] was 93.5% and the residual activity [6] was 103%. For the same compound, the residual activity [7] was 102%, the residual activity [8] was 100% and the residual activity [9] was 98.8%. It also gave a residual activity [10] of 87.4%, a residual activity [11] of 101% and a residual activity [12] of 99.3%. The residual activity [13] was 105%, the residual activity [14] was 104% and the residual activity [15] was 97.9%. For the same compound, the residual activity [16] was 99.6%, the residual activity [17] was 99.8% and the residual activity [18] was 99%. It also gave a residual activity [19] of 99%, a residual activity [20] of 105% and a residual activity [21] of 101%. It also gave a residual activity [22] of 114%, a residual activity [23] of 94.4% and a residual activity [24] of 89.5%. For the same compound, the residual activity [25] was 100%, the residual activity [26] was 99% and the residual activity [27] was 100%. For the same compound, the residual activity [28] was 95.7%, the residual activity [29] was 105% and the residual activity [30] was 100%. For the same compound, the residual activity [31] was 96.7%, the residual activity [32] was 97.2% and the residual activity [33] was 107%. It also gave a residual activity [34] of 102%, a residual activity [35] of 99.1% and a residual activity [36] of 96.7%. For the same compound, the residual activity [37] was 96.2%, the residual activity [38] was 107% and the residual activity [39] was 104%. The residual activity [40] was 101%, the residual activity [41] was 105% and the residual activity [42] was 91.1%.
Work on `CCc1nc(-c2ccc(OC)cc2)[nH]c1-c1ccncc1` yielded a residual activity [1] of 95.8%, a residual activity [2] of 101% and a residual activity [3] of 93.4%. For the same compound, the residual activity [4] was 97.5%, the residual activity [5] was 95.9% and the residual activity [6] was 99.3%. For the same compound, the residual activity [7] was 100%, the residual activity [8] was 95% and the residual activity [9] was 98.9%. For the same compound, the residual activity [10] was 86.8%, the residual activity [11] was 104% and the residual activity [12] was 99.8%. For the same compound, the residual activity [13] was 95.9%, the residual activity [14] was 96.1% and the residual activity [15] was 106%. It also gave a residual activity [16] of 102%, a residual activity [17] of 91.9% and a residual activity [18] of 104%. The residual activity [19] was 113%, the residual activity [20] was 99.9% and the residual activity [21] was 95.2%. For the same compound, the residual activity [22] was 97.7%, the residual activity [23] was 103% and the residual activity [24] was 88.2%. It also gave a residual activity [25] of 100%, a residual activity [26] of 96.3% and a residual activity [27] of 103%. It also gave a residual activity [28] of 98.5%, a residual activity [29] of 101% and a residual activity [30] of 88.5%. The residual activity [31] was 93.4%, the residual activity [32] was 105% and the residual activity [33] was 99.1%. It also gave a residual activity [34] of 95.6%, a residual activity [35] of 103% and a residual activity [36] of 106%. For the same compound, the residual activity [37] was 96.8%, the residual activity [38] was 89.5% and the residual activity [39] was 108%. For the same compound, the residual activity [40] was 104%, the residual activity [41] was 100% and the residual activity [42] was 97.9%.
With `O=c1cc(N2CCOCC2)oc2c(-c3ccccc3)cccc12` the residual activity [1] was 91.2%, the residual activity [2] was 102% and the residual activity [3] was 96.9%. It also gave a residual activity [4] of 104%, a residual activity [5] of 86.7% and a residual activity [6] of 89.1%. It also gave a residual activity [7] of 98.3%, a residual activity [8] of 103% and a residual activity [9] of 104%. For the same compound, the residual activity [10] was 102%, the residual activity [11] was 95.8% and the residual activity [12] was 95.9%. It also gave a residual activity [13] of 104%, a residual activity [14] of 103% and a residual activity [15] of 87.8%. For the same compound, the residual activity [16] was 90.1%, the residual activity [17] was 93.5% and the residual activity [18] was 104%. The residual activity [19] was 87.7%, the residual activity [20] was 104% and the residual activity [21] was 94.1%. For the same compound, the residual activity [22] was 127%, the residual activity [23] was 94.6% and the residual activity [24] was 103%. The residual activity [25] was 89.8%, the residual activity [26] was 90.2% and the residual activity [27] was 67.1%. For the same compound, the residual activity [28] was 96%, the residual activity [29] was 103% and the residual activity [30] was 96%. For the same compound, the residual activity [31] was 82.3%, the residual activity [32] was 104% and the residual activity [33] was 92.4%. For the same compound, the residual activity [34] was 94.9%, the residual activity [35] was 97% and the residual activity [36] was 103%. For the same compound, the residual activity [37] was 97.1%, the residual activity [38] was 101% and the residual activity [39] was 97.5%. The residual activity [40] was 86.4%, the residual activity [41] was 88.7% and the residual activity [42] was 107%.
`N#Cc1c(NC(=O)c2cccc3ccccc23)sc2c1CCCC2` gave a residual activity [1] of 72.9%, a residual activity [2] of 99.6% and a residual activity [3] of 101%. For the same compound, the residual activity [4] was 108%, the residual activity [5] was 100% and the residual activity [6] was 92%. The residual activity [7] was 97.2%, the residual activity [8] was 102% and the residual activity [9] was 97.6%. For the same compound, the residual activity [10] was 99.8%, the residual activity [11] was 110% and the residual activity [12] was 101%. It also gave a residual activity [13] of 109%, a residual activity [14] of 101% and a residual activity [15] of 102%. For the same compound, the residual activity [16] was 85.4%, the residual activity [17] was 88.9% and the residual activity [18] was 95.6%. For the same compound, the residual activity [19] was 98.1%, the residual activity [20] was 97.1% and the residual activity [21] was 96.6%. It also gave a residual activity [22] of 109%, a residual activity [23] of 95.2% and a residual activity [24] of 106%. The residual activity [25] was 88.1%, the residual activity [26] was 98.3% and the residual activity [27] was 96.4%. For the same compound, the residual activity [28] was 94.1%, the residual activity [29] was 101% and the residual activity [30] was 89.8%. The residual activity [31] was 92.9%, the residual activity [32] was 96.3% and the residual activity [33] was 95.3%. The residual activity [34] was 100%, the residual activity [35] was 101% and the residual activity [36] was 106%. For the same compound, the residual activity [37] was 97.7%, the residual activity [38] was 96.1% and the residual activity [39] was 98.5%. It also gave a residual activity [40] of 106%, a residual activity [41] of 95.4% and a residual activity [42] of 101%.
